Data taken from patent US6391918B1, “N-sulphonyl and N-sulphinyl phenylglycinamide” (priority 1998, dated 2002).

melting point: 136 to 138 °C
SMILES: CCS(=O)(=O)NC(C(=O)NCCc1ccc(OC)c(OC)c1)c1ccc(Cl)cc1 (stereo not shown)
